The test system of experiment [1] is human breast tumor tissue (tumor explants). Briefly: Breast tumor explants cultured ex vivo, Ki-67 IHC (proliferation). Type of experiment: cell-based. To be noted: ER+/PR+ tumor explants, 48 hours; progesterone 10 nM; estrogen 1 nM and 10 nM; n=6. From the text: De-identified breast tumor samples were collected after surgery and immediately processed for tissue explant maintenance on sponges in cell culture medium, as previously described (Ravindranathan et al. Nature Communications 2013, 4:1923). Samples were derived from six patients pathologically diagnosed with invasive ductal carcinoma (IDC) and scored positive for ER (94-100%) and PR (1-100%), and negative for HER2 expression. Tissue explants were starved in media containing hormone-stripped FBS for 24 hours, and then treated for 48 hours with (1) vehicle, (2) 1 nM estradiol, (3) 10 nM estradiol, (4) 1 nM progesterone, (5) 10 nM progesterone prior to processing for quantitation of Ki-67 levels by IHC. Across treatment conditions, statistical significance was tested for using one-way analysis-of-variance (ANOVA) followed by pairwise testing of all treatment groups using the TukeyHSD post-test with R statistical software (R Core Team: R: A language and environment for statistical computing. R Foundation for Statistical Computing, Vienna, Austria 2015, [available on the world wide web at r-project.org/]). In additional experiments, six explants were similarly treated with estrogen or progesterone (2 hours) but in combination with 1 uM U0126 (to inhibit ERKs 1/2) and phospho-Ser294 PR levels were measured by IHC. […]

For another experiment, the system named is T47D cells. Put plainly: Mammosphere formation in T47D cells. Format: cell-based, human. To be noted: T47D EV, WT, KR or S294A PR-B; estrogen 1 nM, progesterone 10 nM; 14 days. As for the experimental part:
Primary Mammospheres: Adherent cells were washed with PBS and dissociated enzymatically in 0.25% trypsin-EDTA (Invitrogen Corporation, Carlsbad, Calif.). Cells were sieved through a 40-μm sieve (BD FALCON, BD Biosciences, Bedford, Mass.) and analyzed microscopically for single-cellularity. Single cells were plated in ultra-low attachment plates (Corning, Inc., Corning, N.Y.) and cultured in a humid incubator. Cells were grown in a serum-free mammary epithelial basal medium (MEBM; Lonza Group, Basel, Switzerland) containing 1% B27 Supplement (Invitrogen Corporation, Carlsbad, Calif.), 1% penicillin-streptomycin (Invitrogen Corporation, Carlsbad, Calif.), 5 μg/ml insulin (Invitrogen Corporation, Carlsbad, Calif.), 20 ng/ml EGF (Sigma-Aldrich, St. Louis, Mo.), 1 ng/ml hydrocortisone (Sigma-Aldrich, St. Louis, Mo.), and 100 μM β-mercaptoethanol. […] Mammosphere Forming Efficiency (MFE) % was calculated by the number of mammospheres per well/number of cells seeded per well.
Secondary Mammospheres: Primary mammospheres were collected by centrifugation (5 min, 1000 rpm), and dissociated enzymatically in 0.25% typsin-EDTA. Cells were sieved through a 40-μm tip strainer (Bel-Art SP Scienceware, South Wayne, N.J.) and analyzed microscopically for single-cellularity. […] Mammosphere Forming Efficiency (MFE) % was calculated by the number of mammospheres per well/number of cells seeded per well. […]

For the next experiment, the system named is BT474 cells. Put plainly: Mammosphere formation in unmodified HER2+ BT474 cells. Type of experiment: cell-based. As for the experimental part:
Primary Mammospheres: Adherent cells were washed with PBS and dissociated enzymatically in 0.25% trypsin-EDTA (Invitrogen Corporation, Carlsbad, Calif.). Cells were sieved through a 40-μm sieve (BD FALCON, BD Biosciences, Bedford, Mass.) and analyzed microscopically for single-cellularity. Single cells were plated in ultra-low attachment plates (Corning, Inc., Corning, N.Y.) and cultured in a humid incubator. […] Mammosphere Forming Efficiency (MFE) % was calculated by the number of mammospheres per well/number of cells seeded per well.
Secondary Mammospheres: Primary mammospheres were collected by centrifugation (5 min, 1000 rpm), and dissociated enzymatically in 0.25% typsin-EDTA. Cells were sieved through a 40-μm tip strainer (Bel-Art SP Scienceware, South Wayne, N.J.) and analyzed microscopically for single-cellularity. […] Mammosphere Forming Efficiency (MFE) % was calculated by the number of mammospheres per well/number of cells seeded per well.
The results were also validated in unmodified ER+/PR+BT474 cells. […] In this “high-kinase” context, PRs are readily phosphorylated on Ser294.

The next experiment relates to breast cancer. Conditions: human, in vivo; cited from earlier work.

Results on three molecules are retold here after patent US10942183B2, “Methods of detecting progesterone receptor and of detecting an expression level” (REGENTS OF THE UNIVERSITY OF MINNESOTA, priority 2017, dated 2021).

`CC(=O)[C@H]1CC[C@H]2[C@@H]3CCC4=CC(=O)CC[C@]4(C)[C@H]3CC[C@]12C` [progesterone]: in experiment [1], the “percentage of Ki67-positive cells compared to vehicle treatment” value is reported as “significantly higher percentage of Ki67-positive cells”. Besides, the “total numbers of primary and secondary mammospheres on addition of hormone to culture media” value in the experiment with T47D cells is on record as “had no significant effect on total numbers in any condition”. As for `CN(C)c1ccc([C@H]2C[C@]3(C)[C@@H](CC[C@]3(O)CCCO)[C@@H]3CCC4=CC(=O)CCC4=C32)cc1` [onapristone], in the experiment with BT474 cells (BT474, onapristone 100 or 1000 nM without or with R5020 10 nM), the “effect on basal and progestin-stimulated primary mammosphere formation” value is “effectively reduced both basal and progestin-stimulated primary mammosphere formation”. Moreover, the secondary mammosphere formation result in the experiment with BT474 cells (BT474, onapristone-containing media) was “failed to form”. `CC#C[C@]1(O)CC[C@H]2[C@@H]3CCC4=CC(=O)CCC4=C3[C@@H](c3ccc(N(C)C)cc3)C[C@@]21C` [mifepristone]: in the experiment with breast cancer, the “outcome in clinical trials for breast cancer” value is given as “has not been successful”.
